Source: US20130296358A1, “3-SPIROCYCLIC PIPERIDINE DERIVATIVES AS GHRELIN RECEPTOR AGONISTS” (priority 2012, published 2013)

Key:
[1] = molecular target: T1, human recombinant ghrelin receptor (GHS-R1a) (Homo sapiens, UniProt Q92847); test: Calcium assay, CHO-K1 cells expressing hGHS-R1a (Fluo-4); format: cell-based
T1 construct: host or cells: CHO-K1
Method: (§1) Chinese hamster ovary (CHO-K1) cells expressing human recombinant ghrelin receptor (GHS-R1a) were purchased from Euroscreen (ES-410-C) and propagated in UltraCHO medium containing glutamine and supplemented with 1% heat inactivated foetal calf serum (FCS), 100 U/ml penicillin, 100 mg/l streptomycin and 0.8 g/l geneticin. Cells were sub-cultured twice a week with a 1:10 dilution. For passaging, cells were washed with 1× DPBS without calcium and magnesium, trypsinised for 10 min with 0.05% Trypsin/EDTA and resuspended in cell culture medium.
Cells were diluted to achieve 1×10^6 cells/ml, seeded in 384-well black clear bottom CellBind plates at 25000 cells/well (25u1) and incubated overnight at 37° C./5% CO2 Cells were expected to be 85-90% confluent on the day of assay (checked under the microscope) to ensure a high quality assay. Media was manually removed and 40 μl of loading solution containing probenecid and Fluo-4 no wash dye (a calcium indicator, Invitrogen F36206) were added to each well. After 30 min at 37° C. followed by another 30 min at RT, cpds were added to the wells. To generate a dose response up to 30 μM, 10 mM compound stocks in 100% (v/v) DMSO were firstly diluted in 50% (v/v) DMSO. Then, serial dilutions aimed at a full logarithmic dose responses (8 point) were performed in assay buffer [1×HBSS, 20 mM Hepes, 0.1% (w/v) BSA] to give 2.5% (v/v) DMSO and 5× final compound concentrations. The final assay DMSO concentration was 0.5% (v/v). After loading the cells with Fluo-4 containing solution, plates were read on a CeIlLux instrument (Perkin Elmer). A protocol set up to add 10 μl of 5× compound and to read the plate for 60sec after adding the compound at 17th sec was used. Fluorescence excitation took place at 494 nm and emission at 516 nm. EC50 values of agonists were calculated by fitting the percent stimulation over background [(Max-Min)/Min] using the nonlinear logistic function of the Prism 5 software (GraphPad, USA).

[2] = molecular target: T1, human recombinant ghrelin receptor (GHS-R1a); test: cAMP assay (HTRF), CHO-hGHS-R1a cells; format: cell-based; conditions: relative to the ghrelin response (defined as 100%)
Method: as §1
The Homogeneous Time-Resolved Fluorescence (HTRF) cAMP dynamic 2 kit (Cisbio International, France) was used as follows. CHO-hGHS—R1a or CHO-rGHS—R1a cells were seeded in a volume of 25 μl culture media at 10,000 cells/well (400,000 cells/ml) in Greiner white 384-well high volume plates and incubated overnight (18-24 h) at 37° C./5% CO2. Then, media was removed and 6 μl assay buffer [HBSS, 10 mM Hepes, 0.2% (w/v) BSA, 1.7 mM IBMX, (pH7.4)] were added to the wells. To generate a dose response up to 30 μM, 10 mM compound stocks in 100% (v/v) DMSO were firstly diluted in 50% (v/v) DMSO followed by a further dilution into assay buffer. Then, 4 μl of 2.5× compound (dose response as 9 point log serial dilution in assay buffer from 30 μM as maximum concentration) were added to each well achieving a final DMSO assay concentration of 0.8% (v/v). 0.1 μM forskolin was added as positive control. After 30 min (rGHS—R1a cell line) or 60 min (hGHS—R1a cell line) incubation at 37° C./5% CO2, 5 μl of cAMP-d2 and 5 μl of anti-cAMP antibody-cryptate, (both made in lysis buffer), were added to the plate followed by 1 h incubation at RT. During this time, cAMP produced by the cells competed with cAMP-d2 for the anti-cAMP antibody-cryptate molecule. Then, the plate was read on the Pherastar instrument (BMG, Germany) at two different emission wavelengths ([…]). Increasing levels of endogenous cAMP produced by cells could be followed by a decrease of FRET fluorescent signal and viceversa. Values represented by a change in arbitrary fluorescence ratios (665/620) were converted into cAMP concentrations by using a standard curve, the reagents for which were supplied with the kit. EC50 values of agonists were calculated using the nonlinear logistic function of the Prism 5 software (GraphPad, USA). Emax were expressed as relative values of the ghrelin response, which was defined as 100%.

rat fundus = test: Rat fundus contractility assay (EFS-induced contraction of muscle strips); conditions: for EC50: increase of EFS-induced contraction, mean of preparations from at least 3 animals; for Emax/% / Emax: relative to the response to ghrelin (100 nM), defined as 100%
Method: Male Sprague Dawley rats (180-250 g) were culled by cervical dislocation and the fundus was removed. Each fundus was placed on a Krebs Henseleit (KH) buffer soaked dissection dish and cut along the long curvature to form a flattened sheet that was pinned in each corner. Four adjacent longitudinal strips (10×3 mm) were cut and the mucosa removed by sharp dissection. Each muscle strip was mounted in a 10 ml organ bath containing oxygenated KH at 37° C. Each strip was connected to an isometric force transducer, calibrated initially using a 5 g weight. The signal (g tension) was amplified and responses recorded by a Powerlab data capture system, connected to a computer running Labchart software (version 5.0). Tissues were placed under 1 g tension for an equilibration period of 30 min or until the baseline tension had stabilised. Carbachol (CCh, 100 nM) was then administered to establish the maximum contractile response of each preparation. Tissues were washed thoroughly and left for 30 min to re-equilibrate. Next, the muscle strips underwent electrical field stimulation (EFS). Maximal EFS pulse trains of 12V, 5 Hz, 0.1 msec pulse width, for 2 sec every 60 sec were applied until consistent electrically-stimulated phasic contractions were recorded. The voltage was then reduced in 1V increments until a consistent submaximal (EC50-75) EFS response was observed. Ghrelin (100 nM) was administered and left until a maximum response was obtained. Tissues were then washed thoroughly and left for 30 min. Once the EFS-induced contraction had re-stabilised, cumulative additions (10 nM-10 μM) of each test compound were administered. Individual responses were calculated by determining the peak of the EFS-induced contraction minus the baseline. […] The mean EC50 value for compounds was generated from data obtained on stomach preparations from at least 3 different animals.

[3] = CHO-K1, relative to the Emax induced by MK-0677 (defined as 100%), read-out: hGHS-R1a Ca assay Emax/%

T1 sequence (Q92847 whole entry): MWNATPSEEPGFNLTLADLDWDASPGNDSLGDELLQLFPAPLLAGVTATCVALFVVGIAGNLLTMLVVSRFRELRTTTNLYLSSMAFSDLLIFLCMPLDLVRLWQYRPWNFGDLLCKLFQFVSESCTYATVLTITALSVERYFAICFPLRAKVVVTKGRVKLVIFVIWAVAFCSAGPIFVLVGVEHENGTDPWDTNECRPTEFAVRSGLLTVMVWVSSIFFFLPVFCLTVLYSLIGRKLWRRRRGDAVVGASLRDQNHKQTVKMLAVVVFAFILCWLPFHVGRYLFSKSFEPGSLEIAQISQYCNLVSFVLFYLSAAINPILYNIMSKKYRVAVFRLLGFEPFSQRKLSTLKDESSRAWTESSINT

| Structure (SMILES) | Emax [1, 3] | Emax [2] | also measured |
| --- | --- | --- | --- |
| CN1N=C(c2ccccc2)C2(CCCN(C(=O)[C@@H](COCc3ccccc3)NC(=O)C(C)(C)N)C2)C1=O (mixture of isomers) [Example 1.47, 2-Amino-N-[(R)-1-benzyloxymetnyl-2-(3-methyl-4-oxo-1-phenyl-2,3,7-triaza-spiro[4.5]dec-1-en-7-yl)-2-oxo-ethyl]-2-methyl-propionamide] | 104% | 145% | – |
| CC(C)(N)C(=O)N[C@H](COCc1ccccc1)C(=O)N1CCCC2(C1)C(=O)NCC2c1ccccc1 (single isomer, unassigned) [Example 1.4] | 100% | – | hGHS-R1a cAMP assay Emax/% [2]: 127% |
| CC(C)N1CC(c2ccccc2)C2(CCCN(C(=O)[C@@H](COCc3ccccc3)NC(=O)C(C)(C)N)C2)C1=O (single isomer, unassigned) [Example 1.6] | – | – | EC50 (rat fundus): 373 nM; Emax/% (rat fundus): 70% |
| CN1CC(c2ccc(Cl)cc2)C2(CCCN(C(=O)[C@@H](COCc3ccccc3)NC(=O)C(C)(C)N)C2)C1=O (single isomer, unassigned) [Example 1.8] | 102% | 149% | – |
| CC(C)N1CC(c2ccc(F)cc2)C2(CCCN(C(=O)[C@@H](COCc3ccccc3)NC(=O)C(C)(C)N)C2)C1=O (single isomer, unassigned) [Example 1.18] | – | – | Emax (rat fundus; Rattus norvegicus): 117%; EC50 (rat fundus): 148 nM |
| CC(C)N1CC(c2ccc(F)cc2)C2(CCCN(C(=O)[C@@H](COCc3ccccc3)NC(=O)C(C)(C)N)C2)C1=O (single isomer, unassigned) [Example 1.19] | – | – | EC50 (rat fundus): 23 nM; Emax/% (rat fundus): 124% |
| CCN1CC(c2ccccc2)C2(CCCN(C(=O)[C@@H](COCc3ccccc3)NC(=O)C(C)(C)N)C2)C1=O (single isomer, unassigned) [Example 1.25] | 103% | 223% | – |
| CN1CC(c2ccccc2)C2(CCCN(C(=O)[C@@H](CCc3ccccc3)NC(=O)C(C)(C)N)C2)C1=O (single isomer, unassigned) [Example 1.28] | 106% | 194% | – |
| CN1CC(c2ccccc2)C2(CCCN(C(=O)[C@@H](CCCc3ccccc3)NC(=O)C(C)(C)N)C2)C1=O (single isomer, unassigned) [Example 1.33] | – | – | EC50 (rat fundus): 84 nM; Emax/% (rat fundus): 131% |
| CC(C)(N)C(=O)N[C@H](COCc1ccccc1)C(=O)N1CCCC2(C1)C(=O)NCC2c1ccccc1 (single isomer, unassigned) [Example 1.49] | – | – | hGHS-R1a cAMP assay Emax/% [2]: 88% |
| CN1C(=O)C2(CCCN(C(=O)[C@@H](COCc3ccccc3)NC(=O)C(C)(C)N)C2)C1c1ccccc1 (single isomer, unassigned) [Example 2.0(iii)] | – | – | EC50 (rat fundus): 70 nM; Emax/% (rat fundus): 70% |
| CC(C)N1CC(c2ccccc2)C2(CCCN(C(=O)[C@@H](Cc3c[nH]c4ccccc34)NC(=O)C(C)(C)N)C2)C1=O (single isomer, unassigned) [Example 3.0(ii)] | – | – | EC50 (rat fundus; Rattus norvegicus): 15 nM; Emax (rat fundus; Rattus norvegicus): 85% |
| CC(C)(N)C(=O)N[C@H](COCc1ccccc1)C(=O)N1CCC2(CC1)CN(S(C)(=O)=O)c1ccccc12 [MK-0677, reference compound] | – | – | Emax ([1]; compared with ghrelin): same Emax as ghrelin |

The next lines start with results.

| Emax [1, 3] | Emax [2] | Structure (SMILES) | also measured |
| --- | --- | --- | --- |
| 98% | 141% | Cc1ccccc1C1CN(C)C(=O)C12CCCN(C(=O)[C@@H](COCc1ccccc1)NC(=O)C(C)(C)N)C2 (single isomer, unassigned) [Example 1.51] | – |
| 89% | 212% | Cc1ccc(C2CN(C)C(=O)C23CCCN(C(=O)[C@@H](COCc2ccccc2)NC(=O)C(C)(C)N)C3)cc1 (single isomer, unassigned) [Example 1.53] | – |
| 94% | 191% | Cc1ccc(COC[C@@H](NC(=O)C(C)(C)N)C(=O)N2CCCC3(C2)C(=O)N(C)CC3c2ccccc2)cc1 (single isomer, unassigned) [Example 1.55] | – |
| 84% | 173% | CN1CC(c2ccc(F)cc2)C2(CCCN(C(=O)[C@@H](COCc3ccc(Cl)cc3)NC(=O)C(C)(C)N)C2)C1=O (single isomer, unassigned) [Example 1.57] | – |
| 98% | 171% | CN1CC(c2ccccc2)C2(CCCN(C(=O)[C@@H](COCC3CCCCC3)NC(=O)C(C)(C)N)C2)C1=O (single isomer, unassigned) [Example 1.60] | – |
| 73% | 189% | CN1CN(c2ccccc2)C2(CCCN(C(=O)[C@@H](COCc3ccccc3)NC(=O)C(C)(C)N)C2)C1=O (single isomer, unassigned) [Example 1.61] | – |
| 103% | 268% | COc1ccc(COC[C@@H](NC(=O)C(C)(C)N)C(=O)N2CCCC3(C2)C(=O)N(C)CC3c2ccccc2)cc1 (single isomer, unassigned) [Example 6.0(ii), 2-Amino-N—[(R)-1-(4-methoxy-benzyloxymethyl)-2-((4S,5R)-2-methyl-1-oxo-4-phenyl-2,7-diaza-spiro[4.5]dec-7-yl)-2-oxo-ethyl]-2-methyl-propionamide or 2-Amino-N—[(R)-1-(4-methoxy-benzyloxymethyl)-2-(4R,5S)-2-methyl-1-oxo-4-phenyl-2,7-diaza-spiro[4.5]dec-7-yl)-2-oxo-ethyl]-2-methyl-propionamide] | – |
| 83% | 153% | CN1CC(c2ccccc2)C2(CCCN(C(=O)[C@@H](COCc3ccc(F)cc3)NC(=O)C(C)(C)N)C2)C1=O (single isomer, unassigned) [Example 7.0, 2-Amino-N—[(R)-1-(4-fluoro-benzyloxymethyl)-2-(4S,5R)-2-methyl-1-oxo-4-phenyl-2,7-diaza-spiro[4.5]clec-7-yl)-2-oxo-ethyl]-2-methyl-propionamide or 2-Amino-N—[(R)-1-(4-fluoro-benzyloxymethyl)-2-(4R,5S)-2-methyl-1-oxo-4-phenyl-2,7-diaza-spiro[4.5]clec-7-yl)-2-oxo-ethyl]-2-methyl-propionamide] | – |
